In PubChem BioAssay AID2060626 (Molecular Pharmacology Branch, DTP, NCI, 2025):
Values belong to the compound of their own block, whether it stands above or below them.

Test system: 168753-222-R-J1-PDC complex spheroid viability
Assay: Anticancer human tumor 168753-222-R-J1-PDC patient-derived bladder carcinoma cell line growth inhibition [CLK]
Details: for IC50: curve of first compound; for viability, T/C: stronger effect = lower value
From the text: A high-throughput screen of multi-cell type tumor spheroids was designed to identify active combinations of […] and targeted small molecules. Complex spheroids include a stromal component modeled by human endothelial cells (HUVEC) and fibroblasts modeled by human mesenchymal stem cells (MSCs). The concentration ranges selected for each drug and investigational agent were based upon clinically achievable concentrations if the clinical Cmax of the agent was known.
Compounds. The drugs and investigational agents: cirtuvivint (SM08502; NSC835563), CC-671 (NSC850746), vemurafenib (NSC761431), tapotoclax (NSC804041), sotorasib (NSC818433), adagrasib (NSC831453), MRTX-1133 (NSC836407), BAY2416964 (NSC825713), copanlisib (NSC816437), inavolisib (NSC800729), abemaciclib (NSC768073), osimertinib (NSC779217), entinostat (NSC756642), eltanexor (KPT-8602, NSC794443), venetoclax (NSC766270), ceralasertib (NSC777638), bortezomib (NSC756655), olaparib (NSC753686), talazoparib (NSC767125), alisertib (NSC759677), peposertib (NSC802822), gemcitabine (NSC613327), 5-fluorouracil (NSC19893), SN-38 (NSC673596), oxaliplatin (NSC266046), paclitaxel (NSC125973), and doxorubicin (NSC123127), were obtained from the National Cancer Institute (NCI) Developmental Therapeutics Program Chemical Repository. The FDA-approved anticancer drug set is available from the Developmental Therapeutics Program at https://dtp.cancer.gov/organization/dscb/obtaining/available plates.htm. […] The stock solutions were prepared in dimethyl sulfoxide (DMSO, Sigma-Aldrich, St. Louis, MO, cat. D2650), except for the platinum complexes which were prepared in saline (Quality Biological, Gaithersburg, MD, cat. 114-055-101), at 800-fold the tested concentration and stored at -70 degrees C prior to their use. All drugs and investigational agents were tested over a range starting from a high concentration at or near the clinical Cmax and decreasing in half-log increments. If the clinical Cmax for an agent had not been determined, the highest concentration tested was 10 microM.
Cell Culture. All cells were maintained in an incubator at 37 degrees C and 5% CO2 with 95% humidity. The PDC lines were cultured according to standard operating procedures established by the NCI PDMR. Briefly, all PDCs were thawed and cultured in Matrigel-coated flasks prepared with a working solution of 1X Ham's F-12 nutrient mix, without supplementation (Invitrogen, Waltham, MA, cat. 11765054), 100 U/mL penicillin-streptomycin (Invitrogen, cat. 15140122), and 2.5% Matrigel (Corning Inc., Corning, NY, cat. 354248) for the first three passages. The 947758-054-R-J2-PDC line was cultured in 6B/Colon 1A media, which includes advanced DMEM/F-12 (Thermo Fisher Scientific, cat. 12634028), 10 mM HEPES (Thermo Fisher Scientific, cat. 15630080), 1X GlutaMAX supplement (Thermo Fisher Scientific, cat. 35050061), 0.1 mg/mL primocin (InvivoGen, cat. ant-pm-2), 10% defined fetal bovine serum, heat inactivated (HyClone Laboratories Inc., cat. SH30070.03HI), 1.25 mM N-Acetyl-L-cysteine (Sigma-Aldrich, cat. A9165), 10 mM nicotinamide (Sigma-Aldrich, cat. N0636), 1X B-27 supplement (Thermo Fisher Scientific, cat. 17504044), 1X N-2 supplement (Thermo Fisher Scientific, cat. 17502048), and 10 microM Y-27632 dihydrochloride (Tocris Bioscience, cat. 1254). The 876862-298-R-J1-PDC was cultured in 6E media, which includes all 6B/Colon 1A media components plus 50% L-WRN conditioned media (ATCC, cat. CRL-3276), 50 ng/mL recombinant human EGF recombinant protein (hEGF; Thermo Fisher Scientific, cat. PHG0311), 10 ng/mL recombinant human fibroblast growth factor 10 (hGFG-10; PeproTech, cat. 100-26), 1 ng/mL recombinant human fibroblast growth factor 2 (hFGF-2; PeproTech, cat. 100-18B), and 1 µM prostaglandin E2 (PGE2; Tocris, cat. 2296). The 227483-062-R1-J1-PDC line was cultured in Panc media, containing all 6E components except hFGF-2, with the addition of 500 nM SB-431542 (Selleckchem, cat. S1067) and 10 nM gastrin (Tocris, cat. 3006). […]

[1] = second compound 0.0316 µM, first compound 0.0316 µM
[2] = second compound 0.0316 µM, first compound 0.1 µM
[3] = second compound 0.0316 µM, first compound 0.316 µM
[4] = second compound 0.0316 µM, first compound 1 µM
[5] = second compound 0.0316 µM, first compound 3.16 µM
[6] = second compound 0.0316 µM, first compound 10 µM
[7] = second compound 0.1 µM, first compound 0.0316 µM
[8] = second compound 0.1 µM, first compound 0.1 µM
[9] = second compound 0.1 µM, first compound 0.316 µM
[10] = second compound 0.1 µM, first compound 1 µM
[11] = second compound 0.1 µM, first compound 3.16 µM
[12] = second compound 0.1 µM, first compound 10 µM
[13] = second compound 0.316 µM, first compound 0.0316 µM
[14] = second compound 0.316 µM, first compound 0.1 µM
[15] = second compound 0.316 µM, first compound 0.316 µM
[16] = second compound 0.316 µM, first compound 1 µM
[17] = second compound 0.316 µM, first compound 3.16 µM
[18] = second compound 0.316 µM, first compound 10 µM
[19] = second compound 1 µM, first compound 0.0316 µM
[20] = second compound 1 µM, first compound 0.1 µM
[21] = second compound 1 µM, first compound 0.316 µM
[22] = second compound 1 µM, first compound 1 µM
[23] = second compound 1 µM, first compound 3.16 µM
[24] = second compound 1 µM, first compound 10 µM
[25] = second compound 3.16 µM, first compound 0.0316 µM
[26] = second compound 3.16 µM, first compound 0.1 µM
[27] = second compound 3.16 µM, first compound 0.316 µM
[28] = second compound 3.16 µM, first compound 1 µM
[29] = second compound 3.16 µM, first compound 3.16 µM
[30] = second compound 3.16 µM, first compound 10 µM
[31] = second compound 10 µM, first compound 0.0316 µM
[32] = second compound 10 µM, first compound 0.1 µM
[33] = second compound 10 µM, first compound 0.316 µM
[34] = second compound 10 µM, first compound 1 µM
[35] = second compound 10 µM, first compound 3.16 µM
[36] = second compound 10 µM, first compound 10 µM
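Further: viability measured after seven days of drug exposure.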
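Wherever viability, T/C is given: luminescence signal used as surrogate for viable cell amount; 100% = DMSO vehicle control wells.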

IC50 (second compound 0.0316 µM): > 10 µM | IC50 (second compound 0.1 µM): 8.26 µM | IC50 (second compound 0.316 µM): 2.96 µM | IC50 (second compound 1 µM): < 0.0316 µM | IC50 (second compound 3.16 µM): < 0.0316 µM | IC50 (second compound 10 µM): < 0.0316 µM
SMILES: CC1COCCN1c1cc(C2(S(C)(=N)=O)CC2)nc(-c2ccnc3[nH]ccc23)n1 (centres undefined) + CNC(=O)c1ccc(Nc2nc(OC3CCCC3)c3c(-c4ccc5nc(C)oc5c4)c[nH]c3n2)c(OC)c1
viability, T/C [1]: 111% | viability, T/C [2]: 110% | viability, T/C [3]: 102% | viability, T/C [4]: 103% | viability, T/C [5]: 90.8% | viability, T/C [6]: 52.4% | viability, T/C [7]: 101% | viability, T/C [8]: 102% | viability, T/C [9]: 104% | viability, T/C [10]: 108% | viability, T/C [11]: 73.8% | viability, T/C [12]: 45.3% | viability, T/C [13]: 79.8% | viability, T/C [14]: 72.2% | viability, T/C [15]: 74.5% | viability, T/C [16]: 58.2% | viability, T/C [17]: 51.3% | viability, T/C [18]: 30.9% | viability, T/C [19]: 47.8% | viability, T/C [20]: 44.8% | viability, T/C [21]: 38.5% | viability, T/C [22]: 37.3% | viability, T/C [23]: 24.8% | viability, T/C [24]: 18.1% | viability, T/C [25]: 31.5% | viability, T/C [26]: 20.9% | viability, T/C [27]: 19.4% | viability, T/C [28]: 18.8% | viability, T/C [29]: 17.2% | viability, T/C [30]: 14.2% | viability, T/C [31]: 19.6% | viability, T/C [32]: 23% | viability, T/C [33]: 20.6% | viability, T/C [34]: 16.1% | viability, T/C [35]: 15.3% | viability, T/C [36]: 9.89%

IC50 (second compound 0.0316 µM): 6.52 µM | IC50 (second compound 0.1 µM): 5.81 µM | IC50 (second compound 0.316 µM): 4.58 µM | IC50 (second compound 1 µM): 0.0458 µM | IC50 (second compound 3.16 µM): < 0.0316 µM | IC50 (second compound 10 µM): < 0.0316 µM
SMILES: CC1(C)CCC(CN2CCN(c3ccc(C(=O)NS(=O)(=O)c4ccc(NCC5CCOCC5)c([N+](=O)[O-])c4)c(Oc4cnc5[nH]ccc5c4)c3)CC2)=C(c2ccc(Cl)cc2)C1 + CNC(=O)c1ccc(Nc2nc(OC3CCCC3)c3c(-c4ccc5nc(C)oc5c4)c[nH]c3n2)c(OC)c1
viability, T/C [1]: 109% | viability, T/C [2]: 112% | viability, T/C [3]: 104% | viability, T/C [4]: 109% | viability, T/C [5]: 97% | viability, T/C [6]: 22% | viability, T/C [7]: 99.7% | viability, T/C [8]: 99.5% | viability, T/C [9]: 101% | viability, T/C [10]: 95.7% | viability, T/C [11]: 90.2% | viability, T/C [12]: 14% | viability, T/C [13]: 75.2% | viability, T/C [14]: 77% | viability, T/C [15]: 79.6% | viability, T/C [16]: 80.3% | viability, T/C [17]: 66.7% | viability, T/C [18]: 12.6% | viability, T/C [19]: 50.4% | viability, T/C [20]: 49.5% | viability, T/C [21]: 38.4% | viability, T/C [22]: 25.9% | viability, T/C [23]: 27.2% | viability, T/C [24]: 13.8% | viability, T/C [25]: 23.3% | viability, T/C [26]: 23.1% | viability, T/C [27]: 19.5% | viability, T/C [28]: 20% | viability, T/C [29]: 17.6% | viability, T/C [30]: 23.9% | viability, T/C [31]: 18.1% | viability, T/C [32]: 17.3% | viability, T/C [33]: 17.6% | viability, T/C [34]: 17.3% | viability, T/C [35]: 15.8% | viability, T/C [36]: 20.4%
